Experimental data taken from ChEMBL document CHEMBL1201861, “Genomics of Drug Sensitity in Cancer screening data, Wellcome Trust Sanger Institute”.

What was measured:
Experiment in all cases: cells
MHH-NB-11 = assay type: functional, cell-based, Homo sapiens; settings: Homo sapiens, MHH-NB-11;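 note: growth inhibition of human MHH-NB-11 cells, read out by a cell viability assay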
Description: SANGER: Inhibition of human MHH-NB-11 cell growth in a cell viability assay.

647-V = assay type: functional, cell-based, Homo sapiens; settings: Homo sapiens, 647-V;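 note: growth inhibition of 647-V cells, read out with a cell viability assay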
Description: SANGER: Inhibition of human 647-V cell growth in a cell viability assay.

UMC-11 = assay type: functional, cell-based, Homo sapiens; settings: Homo sapiens, UMC-11;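 note: growth inhibition of UMC-11 cells, read out with a cell viability assay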
Description: SANGER: Inhibition of human UMC-11 cell growth in a cell viability assay.

EOL1 = assay type: functional, cell-based; settings: Homo sapiens;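 note: growth inhibition of EoL-1 cells, read out by a cell viability assay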
Description: SANGER: Inhibition of human EoL-1-cell cell growth in a cell viability assay.

HT = assay type: functional, cell-based; settings: Homo sapiens
Description: SANGER: Inhibition of human HT cell growth in a cell viability assay.

A704 = assay type: functional, cell-based, Homo sapiens; settings: Homo sapiens, A704;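 note: growth inhibition of human A704 cells, read out with a cell viability assay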
Description: SANGER: Inhibition of human A704 cell growth in a cell viability assay.

EW-16 = assay type: functional, cell-based, Homo sapiens; settings: Homo sapiens, EW-16;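 note: growth inhibition of human EW-16 cells, read out as cell viability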
Description: SANGER: Inhibition of human EW-16 cell growth in a cell viability assay.

DOHH-2 = assay type: functional, cell-based; settings: Homo sapiens;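 note: growth inhibition of human DOHH-2 cells, read out with a cell viability assay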
Description: SANGER: Inhibition of human DOHH-2 cell growth in a cell viability assay.

SW1710 = assay type: functional, cell-based, Homo sapiens; settings: Homo sapiens, SW1710;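 note: growth inhibition of SW1710 cells, determined with a cell viability assay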
Description: SANGER: Inhibition of human SW1710 cell growth in a cell viability assay.

SW837 = assay type: functional, cell-based, Homo sapiens; settings: Homo sapiens, SW837;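 note: growth inhibition of SW837 cells, determined with a cell viability assay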
Description: SANGER: Inhibition of human SW837 cell growth in a cell viability assay.

NCI-N87 = assay type: functional, cell-based, Homo sapiens; settings: Homo sapiens, NCI-N87;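 note: growth inhibition of human NCI-N87 cells, read out with a cell viability assay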
Description: SANGER: Inhibition of human NCI-N87 cell growth in a cell viability assay.

no-10 = assay type: functional, cell-based, Homo sapiens; settings: Homo sapiens;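 note: growth inhibition of no-10 cells, read out with a cell viability assay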
Description: SANGER: Inhibition of human no-10 cell growth in a cell viability assay.

EM-2 = assay type: functional, cell-based; settings: Homo sapiens;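 note: growth inhibition of EM-2 cells, read out with a cell viability assay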
Description: SANGER: Inhibition of human EM-2 cell growth in a cell viability assay.

TGBC1TKB = assay type: functional, cell-based, Homo sapiens; settings: Homo sapiens, TGBC1TKB;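 note: growth inhibition of TGBC1TKB cells, read out by a cell viability assay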
Description: SANGER: Inhibition of human TGBC1TKB cell growth in a cell viability assay.

A2058 = assay type: functional, cell-based; settings: Homo sapiens;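 note: reduction of A2058 cell growth, read out with a viability assay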
Description: SANGER: Inhibition of human A2058 cell growth in a cell viability assay.

MKN-7 = assay type: functional, cell-based, Homo sapiens; settings: Homo sapiens, MKN-7;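 note: growth inhibition of MKN-7 cells, read out with a cell viability assay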
Description: SANGER: Inhibition of human MKN7 cell growth in a cell viability assay.

COLO-679 = assay type: functional, cell-based, Homo sapiens; settings: Homo sapiens, COLO-679
Description: SANGER: Inhibition of human COLO-679 cell growth in a cell viability assay.

DB = assay type: functional, cell-based; settings: Homo sapiens
Description: SANGER: Inhibition of human DB cell growth in a cell viability assay.

HOP-92 = assay type: functional, cell-based, Homo sapiens; settings: Homo sapiens, HOP-92;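 note: cell viability readout, with IC50 reflecting inhibition of HOP-92 cell growth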
Description: SANGER: Inhibition of human HOP-92 cell growth in a cell viability assay.

GAMG = assay type: functional, cell-based, Homo sapiens; settings: Homo sapiens, GAMG;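 note: cell growth inhibition measured by a viability assay in the GAMG human cell line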
Description: SANGER: Inhibition of human GAMG cell growth in a cell viability assay.

SW 962 = assay type: functional, cell-based, Homo sapiens; settings: Homo sapiens, SW 962;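 note: growth inhibition of human SW962 cells, read out by a cell viability assay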
Description: SANGER: Inhibition of human SW962 cell growth in a cell viability assay.

NCI-H727 = assay type: functional, cell-based, Homo sapiens; settings: Homo sapiens, NCI-H727;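 note: growth inhibition of human NCI-H727 cells, read out with a cell viability assay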
Description: SANGER: Inhibition of human NCI-H727 cell growth in a cell viability assay.

TE-6 = assay type: functional, cell-based, Homo sapiens; settings: Homo sapiens, TE-6;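 note: growth inhibition of TE-6 cells, read out with a cell viability assay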
Description: SANGER: Inhibition of human TE-6 cell growth in a cell viability assay.

NCI-H2052 = assay type: functional, cell-based, Homo sapiens; settings: Homo sapiens, NCI-H2052;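 note: growth inhibition of NCI-H2052 cells, read out with a cell viability assay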
Description: SANGER: Inhibition of human NCI-H2052 cell growth in a cell viability assay.

HCC1569 = assay type: functional, cell-based, Homo sapiens; settings: Homo sapiens, HCC1569;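 note: growth inhibition of human HCC1569 cells, read out with a cell viability assay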
Description: SANGER: Inhibition of human HCC1569 cell growth in a cell viability assay.

BXPC-3 = assay type: functional, cell-based, Homo sapiens; settings: Homo sapiens, BXPC-3;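 note: growth inhibition of human BxPC-3 cells, read out by a cell viability assay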
Description: SANGER: Inhibition of human BxPC-3 cell growth in a cell viability assay.

SN12C = assay type: functional, cell-based, Homo sapiens; settings: Homo sapiens, SN12C;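 note: growth inhibition of human SN12C cells, measured by a cell viability assay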
Description: SANGER: Inhibition of human SN12C cell growth in a cell viability assay.

OMC-1 = assay type: functional, cell-based, Homo sapiens; settings: Homo sapiens, OMC-1;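 note: growth inhibition of the OMC-1 cell line, measured by a cell viability assay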
Description: SANGER: Inhibition of human OMC-1 cell growth in a cell viability assay.

GR-ST = assay type: functional, cell-based; settings: Homo sapiens
Description: SANGER: Inhibition of human GR-ST cell growth in a cell viability assay.

KINGS-1 = assay type: functional, cell-based, Homo sapiens; settings: Homo sapiens, KINGS-1;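 note: cell viability assay measuring suppression of KINGS-1 cell growth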
Description: SANGER: Inhibition of human KINGS-1 cell growth in a cell viability assay.

DOK = assay type: functional, cell-based, Homo sapiens; settings: Homo sapiens, DOK;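 note: cell viability assay read-out, values reflect inhibition of cell growth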
Description: SANGER: Inhibition of human DOK cell growth in a cell viability assay.

NB6 = assay type: functional, cell-based, Homo sapiens; settings: Homo sapiens, NB6;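 note: growth inhibition of NB6 cells, read out by a cell viability assay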
Description: SANGER: Inhibition of human NB6 cell growth in a cell viability assay.

AM-38 = assay type: functional, cell-based, Homo sapiens; settings: Homo sapiens, AM-38;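 note: growth inhibition of AM-38 cells of human origin, read out by a cell viability assay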
Description: SANGER: Inhibition of human AM-38 cell growth in a cell viability assay.

KY821 = assay type: functional, cell-based; settings: Homo sapiens;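 note: growth inhibition of human KY821 cells, read out by a cell viability assay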
Description: SANGER: Inhibition of human KY821 cell growth in a cell viability assay.

SW780 = assay type: functional, cell-based, Homo sapiens; settings: Homo sapiens, SW780;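 note: growth inhibition of the cells, read out with a cell viability assay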
Description: SANGER: Inhibition of human SW780 cell growth in a cell viability assay.

ES6 = assay type: functional, cell-based, Homo sapiens; settings: Homo sapiens, ES6;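 note: growth inhibition of human ES6 cells, read out with a cell viability assay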
Description: SANGER: Inhibition of human ES6 cell growth in a cell viability assay.

NCI-H2030 = assay type: functional, cell-based, Homo sapiens; settings: Homo sapiens, NCI-H2030;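 note: growth inhibition of human NCI-H2030 cells, read out by a cell viability assay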
Description: SANGER: Inhibition of human NCI-H2030 cell growth in a cell viability assay.

MIA PaCa-2 = assay type: functional, cell-based, Homo sapiens; settings: Homo sapiens, MIA PaCa-2;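 note: growth inhibition of MIA PaCa-2 cells, read out with a cell viability assay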
Description: SANGER: Inhibition of human MIA-PaCa-2 cell growth in a cell viability assay.

RS4-11 = assay type: functional, cell-based; settings: Homo sapiens;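 note: growth inhibition of RS4-11 cells, read out by a cell viability assay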
Description: SANGER: Inhibition of human RS4-11 cell growth in a cell viability assay.

SBC-5 = assay type: functional, cell-based, Homo sapiens; settings: Homo sapiens, SBC-5;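 note: cell viability assay read-out, IC50 is the concentration that inhibits growth of the cells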
Description: SANGER: Inhibition of human SBC-5 cell growth in a cell viability assay.

COLO-320-HSR = assay type: functional, cell-based; settings: Homo sapiens;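 note: growth inhibition of COLO-320-HSR cells, determined with a cell viability assay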
Description: SANGER: Inhibition of human COLO-320-HSR cell growth in a cell viability assay.

D-263MG = assay type: functional, cell-based, Homo sapiens; settings: Homo sapiens, D-263MG
Description: SANGER: Inhibition of human D-263MG cell growth in a cell viability assay.

SW 954 = assay type: functional, cell-based, Homo sapiens; settings: Homo sapiens, SW 954;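 note: growth inhibition of SW954 human cancer cells, read out as cell viability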
Description: SANGER: Inhibition of human SW954 cell growth in a cell viability assay.

COLO-824 = assay type: functional, cell-based, Homo sapiens; settings: Homo sapiens, COLO-824
Description: SANGER: Inhibition of human COLO-824 cell growth in a cell viability assay.

TE-11 = assay type: functional, cell-based, Homo sapiens; settings: Homo sapiens, TE-11;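 note: growth inhibition of human TE-11 cells, read out by a cell viability assay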
Description: SANGER: Inhibition of human TE-11 cell growth in a cell viability assay.

SK-MES-1 = assay type: functional, cell-based, Homo sapiens; settings: Homo sapiens, SK-MES-1;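 note: growth inhibition of human SK-MES-1 cells, read out with a cell viability assay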
Description: SANGER: Inhibition of human SK-MES-1 cell growth in a cell viability assay.

LS-1034 = assay type: functional, cell-based, Homo sapiens; settings: Homo sapiens, LS-1034
Description: SANGER: Inhibition of human LS-1034 cell growth in a cell viability assay.

NH-12 = assay type: functional, cell-based, Homo sapiens; settings: Homo sapiens, NH-12;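 note: growth inhibition of NH-12 cells, read out with a cell viability assay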
Description: SANGER: Inhibition of human NH-12 cell growth in a cell viability assay.

KM12 = assay type: functional, cell-based, Homo sapiens; settings: Homo sapiens, KM12;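 note: KM12 cell growth inhibition, read out with a cell viability assay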
Description: SANGER: Inhibition of human KM12 cell growth in a cell viability assay.

U2OS = assay type: functional, cell-based, Homo sapiens, U-2-OS; settings: Homo sapiens, U2OS;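 note: growth inhibition of human U-2-OS cells, determined with a cell viability assay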
Description: SANGER: Inhibition of human U-2-OS cell growth in a cell viability assay.

HCC 2998 = assay type: functional, cell-based, Homo sapiens; settings: Homo sapiens, HCC 2998;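 note: growth inhibition of human HCC2998 cells, measured with a cell viability read-out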
Description: SANGER: Inhibition of human HCC2998 cell growth in a cell viability assay.

A 172 = assay type: functional, cell-based, Homo sapiens; settings: Homo sapiens, A 172;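 note: growth inhibition of A172 cells, measured with a cell viability readout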
Description: SANGER: Inhibition of human A172 cell growth in a cell viability assay.

COc1cc(F)c(F)c(Nc2ccc(I)cc2F)c1NS(=O)(=O)C1(CC(O)CO)CC1 (configuration not stated)
IC50 (MHH-NB-11): 1.06 µM | IC50 (647-V): > 5 µM | IC50 (UMC-11): > 5 µM | IC50 (EOL1): 0.399 µM | IC50 (HT): > 5 µM | IC50 (A704): 4.7 µM | IC50 (EW-16): > 5 µM | IC50 (DOHH-2): > 5 µM | IC50 (SW1710): 2.02 µM | IC50 (SW837): > 5 µM | IC50 (NCI-N87): > 5 µM | IC50 (no-10): > 5 µM | IC50 (EM-2): > 5 µM | IC50 (TGBC1TKB): > 5 µM | IC50 (A2058): 3.8 µM | IC50 (MKN-7): > 5 µM | IC50 (COLO-679): 0.153 µM | IC50 (DB): > 5 µM | IC50 (HOP-92): 0.683 µM | IC50 (GAMG): > 5 µM | IC50 (SW 962): 1.5 µM | IC50 (NCI-H727): > 5 µM | IC50 (TE-6): > 5 µM | IC50 (NCI-H2052): > 5 µM | IC50 (HCC1569): > 5 µM | IC50 (BXPC-3): 1.6 µM | IC50 (SN12C): > 5 µM | IC50 (OMC-1): > 5 µM | IC50 (GR-ST): > 5 µM | IC50 (KINGS-1): 2.69 µM | IC50 (DOK): 0.432 µM | IC50 (NB6): > 5 µM | IC50 (AM-38): > 5 µM | IC50 (KY821): 0.107 µM | IC50 (SW780): 0.758 µM | IC50 (ES6): > 5 µM | IC50 (NCI-H2030): > 5 µM | IC50 (MIA PaCa-2): 2.82 µM | IC50 (RS4-11): > 5 µM | IC50 (SBC-5): > 5 µM | IC50 (COLO-320-HSR): > 5 µM | IC50 (D-263MG): 0.431 µM | IC50 (SW 954): > 5 µM | IC50 (COLO-824): > 5 µM | IC50 (TE-11): > 5 µM | IC50 (SK-MES-1): 1.35 µM | IC50 (LS-1034): 1.62 µM | IC50 (NH-12): 1.2 µM | IC50 (KM12): > 5 µM | IC50 (U2OS): 2.75 µM | IC50 (HCC 2998): 0.0869 µM

COC(=O)CNC(=O)C(=O)OC
IC50 (MHH-NB-11): > 4000 µM | IC50 (647-V): 93.5 µM | IC50 (UMC-11): 147 µM | IC50 (EOL1): 122 µM | IC50 (HT): 132 µM | IC50 (A704): 1140 µM | IC50 (EW-16): 377 µM | IC50 (DOHH-2): 281 µM | IC50 (SW1710): 277 µM | IC50 (SW837): 858 µM | IC50 (NCI-N87): 3950 µM | IC50 (no-10): 995 µM | IC50 (EM-2): 234 µM | IC50 (TGBC1TKB): 1790 µM | IC50 (A2058): 166 µM | IC50 (MKN-7): > 4000 µM | IC50 (COLO-679): 157 µM | IC50 (DB): 52.4 µM | IC50 (HOP-92): 1960 µM | IC50 (GAMG): 1380 µM | IC50 (SW 962): 265 µM | IC50 (NCI-H727): > 4000 µM | IC50 (TE-6): 1360 µM | IC50 (NCI-H2052): 2880 µM | IC50 (HCC1569): 1680 µM | IC50 (BXPC-3): 639 µM | IC50 (SN12C): 257 µM | IC50 (OMC-1): 249 µM | IC50 (GR-ST): 213 µM | IC50 (KINGS-1): 585 µM | IC50 (DOK): > 4000 µM | IC50 (NB6): 1920 µM | IC50 (AM-38): 668 µM | IC50 (KY821): > 4000 µM | IC50 (A 172): 566 µM | IC50 (SW780): 133 µM | IC50 (ES6): 3540 µM | IC50 (NCI-H2030): 105 µM | IC50 (MIA PaCa-2): 139 µM | IC50 (RS4-11): 34.2 µM | IC50 (SBC-5): 1390 µM | IC50 (COLO-320-HSR): > 4000 µM | IC50 (D-263MG): 410 µM | IC50 (SW 954): 85.4 µM | IC50 (COLO-824): 2400 µM | IC50 (TE-11): 420 µM | IC50 (SK-MES-1): 221 µM | IC50 (LS-1034): 2570 µM | IC50 (NH-12): > 4000 µM | IC50 (KM12): 2240 µM | IC50 (HCC 2998): 3160 µM
